This is an account of results in ChEMBL document CHEMBL5620343, “Advances in the development of phosphodiesterase 7 inhibitors” (Eur J Med Chem, 2023).

Data set [1] in a line: Oral bioavailability in rat. It is filed as ADME, organism-based. The note with it: in vivo.
For data set [2], the target named is T1, Phosphodiesterase 4 (Homo sapiens, UniProt P27815+Q08499+Q07343+Q08493). Nature of the data set: Inhibition of human recombinant PDE4. It is filed as protein assay.
A short description of data set [3]: Half life in rat. It is filed as ADME. The note with it: in vivo.
Data set [4] deals with T2, Phosphodiesterase 7 (Homo sapiens, UniProt Q13946+Q9NP56). Nature of the data set: Inhibition of recombinant PDE7 (unknown origin) expressed in Escherichia coli BL21 (DE3) using [3H]cAMP as substrate preincubated for 15 mins followed by compound addition and incubated for 1 hr by liquid scintillation method.
Data set [5] in a line: Inhibition of human PDE4 catalytic domain expressed in Escherichia coli.
The nature of data set [6]: Selectivity index, ratio of IC50 for inhibition of PDE7A1 (130 to 482 residues) (unknown origin) expressed in Escherichia coli BL21 to IC50 for inhibition of recombinant PDE4D2 (86 to 413 residues) (unknown origin) expressed in Escherichia coli BL21.
The target in data set [7] is 3',5'-cyclic-AMP phosphodiesterase 7B (Homo sapiens, UniProt Q9NP56). Nature of the data set: Inhibition of PDE7B (unknown origin) by 3H-cAMP scintillation proximity assay. (In a scintillation proximity assay essentially only radioactivity close to the scintillant gives light.)
Data set [8] addresses T2, Phosphodiesterase 7. Put plainly: Inhibition of PDE7 (unknown origin) by fluorescent based assay. It is filed as protein assay.
Data set [9] deals with T3, High affinity 3',5'-cyclic-AMP phosphodiesterase 7A (Homo sapiens, UniProt Q13946). Put plainly: Inhibition of recombinant PDE7A1 (130 to 482 residues) (unknown origin) expressed in Escherichia coli BL21 (DE3) using [3H]cAMP as substrate incubated for 15 mins by liquid scintillation method.
The target in data set [10] is 3',5'-cyclic-AMP phosphodiesterase 4D (Homo sapiens, UniProt Q08499). Put plainly: Inhibition of human PDE4D3.
The nature of data set [11]: Oral bioavailability in mouse at 2.5 mg/kg. It is filed as ADME, organism-based. The note with it: in vivo.
Data set [12] deals with T3, High affinity 3',5'-cyclic-AMP phosphodiesterase 7A. Put plainly: Inhibition of recombinant PDE7A1 (unknown origin) expressed in Escherichia coli BL21 using [3H]cAMP as substrate preincubated for 15 mins followed by compound addition and measured after 1 hr by liquid scintillation method.
Data set [13] addresses T4, Glycogen synthase kinase-3 beta (Homo sapiens, UniProt P49841). Put plainly: Inhibition of GSK-3beta (unknown origin).
The target of another data set is Phosphodiesterase 3 (Homo sapiens, UniProt Q14432+Q13370). Nature of the data set: Inhibition of human recombinant PDE3 expressed in Escherichia coli.
Data set [14] concerns the target T2, Phosphodiesterase 7. Nature of the data set: Inhibition of full length PDE7 (unknown origin) using FAM-cAMP as substrate by fluorescence based analysis. It is filed as protein assay.
Data set [15] concerns the target T3, High affinity 3',5'-cyclic-AMP phosphodiesterase 7A. Nature of the data set: Inhibition of PDE7A (unknown origin).
The target in data set [16] is T2, Phosphodiesterase 7. Nature of the data set: Inhibition of PDE7 (unknown origin). It is filed as protein assay.
Data set [17] addresses T1, Phosphodiesterase 4. Nature of the data set: Inhibition of PDE4 (unknown origin) by fluorescent based assay. It counts as protein assay.
In data set [18] the target is T4, Glycogen synthase kinase-3 beta. Put plainly: Inhibition of GSK3beta (unknown origin) activity assessed as […] by ADP-Glo Kinase Assay. (In general: ADP-Glo turns the ADP formed in a reaction into a luminescent signal.)
The nature of data set [19]: Brain to plasma ratio in iv dosed rat measured after 30 mins. The note with it: read-out: BPR. It counts as ADME, organism-based.
Data set [20] is described as follows: Inhibition of PDE8 (unknown origin) by fluorescent based assay. More on the design: species or system Homo sapiens.
The species entered for another data set is Homo sapiens. Nature of the data set: Selectivity index, ratio of IC50 for human PDE4B1 S133D mutant to IC50 for human PDE4D7 S129D mutant.
Data set [21] in a line: Aqueous solubility of compound in PBS at pH 6.5. It counts as physicochemical.
Data set [22] deals with 3',5'-cyclic-AMP phosphodiesterase 4B (Homo sapiens, UniProt Q07343). Nature of the data set: Inhibition of PDE4B1 (unknown origin).
In data set [23] the target is 3',5'-cyclic-AMP phosphodiesterase 4A (Homo sapiens, UniProt P27815). Nature of the data set: Inhibition of PDE4A1 (unknown origin).

pIC50: −log10 of the molar value. Values after ≈ are worked out from the molar mass of the structure shown.

3',5'-cyclic-AMP phosphodiesterase 7B, sequence (Q9NP56 whole entry): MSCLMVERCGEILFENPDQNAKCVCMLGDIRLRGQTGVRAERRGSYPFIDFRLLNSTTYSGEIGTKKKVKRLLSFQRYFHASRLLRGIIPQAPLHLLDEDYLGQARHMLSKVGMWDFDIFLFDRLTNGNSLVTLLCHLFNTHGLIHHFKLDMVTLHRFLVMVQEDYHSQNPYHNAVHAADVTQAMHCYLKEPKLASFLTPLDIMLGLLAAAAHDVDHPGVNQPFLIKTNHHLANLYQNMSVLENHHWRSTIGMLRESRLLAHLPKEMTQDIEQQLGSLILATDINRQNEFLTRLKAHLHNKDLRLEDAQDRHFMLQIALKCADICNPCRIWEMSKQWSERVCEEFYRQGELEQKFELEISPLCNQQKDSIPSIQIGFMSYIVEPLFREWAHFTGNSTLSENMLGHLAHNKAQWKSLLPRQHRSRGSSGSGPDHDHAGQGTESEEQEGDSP
T4 sequence (P49841 whole entry): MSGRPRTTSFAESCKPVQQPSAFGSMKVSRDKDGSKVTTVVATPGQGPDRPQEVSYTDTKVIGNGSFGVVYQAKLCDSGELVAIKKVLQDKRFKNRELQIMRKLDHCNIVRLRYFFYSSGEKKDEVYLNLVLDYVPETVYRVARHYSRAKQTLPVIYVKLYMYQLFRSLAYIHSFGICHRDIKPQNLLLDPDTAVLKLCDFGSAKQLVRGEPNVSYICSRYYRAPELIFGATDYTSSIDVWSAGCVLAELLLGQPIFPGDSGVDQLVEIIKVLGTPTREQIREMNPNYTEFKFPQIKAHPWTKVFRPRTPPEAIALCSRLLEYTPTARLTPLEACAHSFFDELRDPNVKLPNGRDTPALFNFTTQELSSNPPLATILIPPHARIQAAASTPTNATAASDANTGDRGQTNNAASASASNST
T3 sequence (Q13946 whole entry, the tested form may be a part): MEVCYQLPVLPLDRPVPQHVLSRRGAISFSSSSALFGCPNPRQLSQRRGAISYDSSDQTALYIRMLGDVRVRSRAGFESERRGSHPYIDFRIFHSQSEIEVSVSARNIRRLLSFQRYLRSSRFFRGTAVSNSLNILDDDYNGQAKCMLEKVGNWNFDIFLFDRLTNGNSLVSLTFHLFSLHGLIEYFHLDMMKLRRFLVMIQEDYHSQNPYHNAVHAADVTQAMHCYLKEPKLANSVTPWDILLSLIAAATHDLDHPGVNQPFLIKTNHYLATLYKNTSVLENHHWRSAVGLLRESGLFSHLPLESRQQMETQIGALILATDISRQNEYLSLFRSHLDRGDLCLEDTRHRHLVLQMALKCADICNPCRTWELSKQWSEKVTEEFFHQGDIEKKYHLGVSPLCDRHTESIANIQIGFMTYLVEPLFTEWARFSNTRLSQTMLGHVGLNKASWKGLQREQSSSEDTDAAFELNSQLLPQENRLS
3',5'-cyclic-AMP phosphodiesterase 4D, sequence (Q08499 whole entry): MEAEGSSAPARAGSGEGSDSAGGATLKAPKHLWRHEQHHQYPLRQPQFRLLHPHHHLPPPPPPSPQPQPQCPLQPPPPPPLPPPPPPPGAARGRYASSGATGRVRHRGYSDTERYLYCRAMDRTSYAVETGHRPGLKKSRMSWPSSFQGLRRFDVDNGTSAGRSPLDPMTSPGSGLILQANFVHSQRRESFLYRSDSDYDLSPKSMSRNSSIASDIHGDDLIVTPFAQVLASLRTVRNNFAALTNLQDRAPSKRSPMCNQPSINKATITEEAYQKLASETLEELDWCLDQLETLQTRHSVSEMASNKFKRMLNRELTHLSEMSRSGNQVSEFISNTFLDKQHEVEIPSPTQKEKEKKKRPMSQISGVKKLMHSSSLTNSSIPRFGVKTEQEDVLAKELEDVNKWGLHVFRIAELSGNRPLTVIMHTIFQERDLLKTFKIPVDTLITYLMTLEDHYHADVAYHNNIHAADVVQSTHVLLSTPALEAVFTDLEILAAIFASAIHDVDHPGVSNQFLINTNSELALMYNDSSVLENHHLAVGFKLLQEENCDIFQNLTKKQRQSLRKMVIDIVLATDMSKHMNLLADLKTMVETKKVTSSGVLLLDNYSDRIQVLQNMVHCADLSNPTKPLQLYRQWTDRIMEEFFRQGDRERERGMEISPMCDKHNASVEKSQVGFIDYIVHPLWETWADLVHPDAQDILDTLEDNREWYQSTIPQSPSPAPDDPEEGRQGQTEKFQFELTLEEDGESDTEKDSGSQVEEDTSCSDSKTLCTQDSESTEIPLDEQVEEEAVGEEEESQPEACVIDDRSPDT
3',5'-cyclic-AMP phosphodiesterase 4B, sequence (Q07343 whole entry): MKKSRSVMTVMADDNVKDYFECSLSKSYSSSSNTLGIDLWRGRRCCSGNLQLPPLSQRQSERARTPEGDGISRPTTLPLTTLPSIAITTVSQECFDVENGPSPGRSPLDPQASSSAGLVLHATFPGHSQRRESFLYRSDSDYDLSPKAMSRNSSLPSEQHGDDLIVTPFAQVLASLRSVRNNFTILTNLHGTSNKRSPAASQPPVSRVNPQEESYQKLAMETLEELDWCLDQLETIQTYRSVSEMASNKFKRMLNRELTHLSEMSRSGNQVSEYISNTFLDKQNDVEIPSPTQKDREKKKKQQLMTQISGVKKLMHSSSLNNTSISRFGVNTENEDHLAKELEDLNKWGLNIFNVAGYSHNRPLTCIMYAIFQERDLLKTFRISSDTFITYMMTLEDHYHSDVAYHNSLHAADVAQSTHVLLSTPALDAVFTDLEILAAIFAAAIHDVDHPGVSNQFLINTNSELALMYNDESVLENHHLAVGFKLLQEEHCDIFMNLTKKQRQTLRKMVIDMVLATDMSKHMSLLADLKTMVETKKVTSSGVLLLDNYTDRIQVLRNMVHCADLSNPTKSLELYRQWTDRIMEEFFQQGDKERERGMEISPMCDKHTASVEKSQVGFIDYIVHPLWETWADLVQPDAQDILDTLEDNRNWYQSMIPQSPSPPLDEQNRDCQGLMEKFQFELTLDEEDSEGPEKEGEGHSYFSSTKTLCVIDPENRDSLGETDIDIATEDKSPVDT
3',5'-cyclic-AMP phosphodiesterase 4A, sequence (P27815 whole entry): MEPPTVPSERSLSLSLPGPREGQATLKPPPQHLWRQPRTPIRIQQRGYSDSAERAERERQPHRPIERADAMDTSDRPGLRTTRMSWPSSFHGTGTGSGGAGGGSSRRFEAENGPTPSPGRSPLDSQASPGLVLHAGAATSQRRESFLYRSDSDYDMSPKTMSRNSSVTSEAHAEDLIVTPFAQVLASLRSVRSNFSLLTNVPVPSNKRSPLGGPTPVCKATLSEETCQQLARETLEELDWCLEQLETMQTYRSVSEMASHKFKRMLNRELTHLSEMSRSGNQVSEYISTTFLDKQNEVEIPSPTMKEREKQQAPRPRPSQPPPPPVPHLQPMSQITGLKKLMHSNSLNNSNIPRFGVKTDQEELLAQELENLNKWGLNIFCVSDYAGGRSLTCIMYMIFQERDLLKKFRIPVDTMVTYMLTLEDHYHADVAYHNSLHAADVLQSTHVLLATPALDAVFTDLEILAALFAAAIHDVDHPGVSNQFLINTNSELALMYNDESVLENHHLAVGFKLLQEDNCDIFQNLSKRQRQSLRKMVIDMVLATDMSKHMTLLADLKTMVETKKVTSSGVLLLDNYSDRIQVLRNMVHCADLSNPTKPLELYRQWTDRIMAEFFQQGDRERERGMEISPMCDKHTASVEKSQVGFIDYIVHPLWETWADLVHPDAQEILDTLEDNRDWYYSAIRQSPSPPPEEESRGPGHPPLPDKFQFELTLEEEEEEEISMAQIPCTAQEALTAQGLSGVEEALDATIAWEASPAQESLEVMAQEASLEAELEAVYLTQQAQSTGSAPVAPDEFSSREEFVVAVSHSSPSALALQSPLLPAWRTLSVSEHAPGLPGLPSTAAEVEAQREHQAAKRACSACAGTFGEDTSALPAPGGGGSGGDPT

In general, bioavailability refers to the share of a dose that reaches the circulation, judged against a reference dose that is usually intravenous. Usually IC50 stands for the concentration needed to halve the response being measured. What is called half-life is the time in which the quantity being followed falls by half. A high value points to slow loss. In turn, `CN1CCN(C(=O)c2ccc(-c3cc(Cl)c4c(c3)C3(CCCCC3)NC(=O)N4)cc2)CC1` registered a bioavailability in data set [1] of 27%. Further, the IC50 came out at 1700 nM at Phosphodiesterase 4 [2] and 14 nM at Phosphodiesterase 7 [4]. For the same compound, in data set [3], the half-life is 1.5 h. The pIC50 is the negative decadic logarithm of the IC50, by convention in mol/L. For the compound `CCOc1cc2cc(CO)c(CO)c(-c3ccnc(-n4nc(-c5cccnc5)c5ccccc5c4=O)c3)c2cc1OCC`, the pIC50 in data set [5] was 6.89; in data set [7], 5.77. Further, the Ratio IC50 in data set [6] was 13. The compound `CC(C)Cn1c(=O)n(C)c(=O)c2nc[nH]c21` [ISOBUTYLMETHYLXANTHINE] displayed a half-inhibitory concentration (IC50) on Phosphodiesterase 7 [8] of 8100 nM. In turn, `O=c1c2ccccc2[nH]c(=S)n1-c1ccccc1` showed a negative-log IC50 (pIC50) in [7] of 5.06.

In the case of `CCOc1ccc(-c2c(C(C)(C)O)oc(=O)c3ccccc23)cc1OC1CCCC1`, the pIC50 in data set [9] was 5.85. As for `Cn1nc(-c2ccc(Cl)cc2)s/c1=N\c1ccc(F)c(C(=O)O)c1`, the values for the pIC50 in data set [10] and in data set [12] were 6.80 and 5.40, respectively. Moreover, the bioavailability in [11] came out at 49.3%.

Take `FC(F)(F)c1cc(N2C(=S)Nc3ccccc3C23CCc2ccccc2N3)cc(C(F)(F)F)c1` (stereo not given): the negative logarithm of the IC50 (pIC50) in data set [12] was over 6.77. Turning to `OCC/N=c1/nc(-c2ccccc2)n(-c2ccccc2)s1`, the pIC50 in data set [13] is 5.71. As to `Br.c1ccc(-c2n/c(=N/CCC3CCOCC3)sn2-c2ccccc2)cc1`, the IC50 is given as over 10000 nM at Phosphodiesterase 3 and 1590 nM against Phosphodiesterase 7 [14].

`CCn1ncc2c(NC3CCOCC3)c(-c3nnc(Cc4sc(C)nc4C)o3)cnc21` [GSK-356278]: on Phosphodiesterase 3, the half-inhibitory concentration (IC50) came to 5 nM. Besides, in data set [15], the negative-log IC50 (pIC50) was 9.12. For `CCn1c(NC(C)C)nc2c(C3CCN(C(=O)c4cccc(C)n4)C3)csc2c1=O` (stereo not given), the IC50 on Phosphodiesterase 7 [16] was 3.3 nM; at Phosphodiesterase 4 [17] it was 46 nM. On Phosphodiesterase 7 [14], `COc1ccc(Cn2c(=O)c3cc(OCC#N)ccc3n(C3CCSCC3)c2=O)cc1OC` yielded an IC50 of 5.5 nM. Take `c1ccc(-c2n/c(=N/Cc3cccnc3)sn2-c2ccccc2)cc1`: the pIC50 in [18] is 5.89. This compound yielded a half-maximal inhibitory concentration (IC50) at Phosphodiesterase 7 [8] of 380 nM. With `COc1cc(Cn2c(=O)c3cc(OC(CF)CF)ccc3n(C3CCN(C=O)CC3)c2=O)ccc1OCC(=O)N1CCCCC1`, the IC50 against Phosphodiesterase 7 [8] amounted to 46 nM.

On to `O=C(Nc1ccc(N2CCOCC2)cc1)c1cn(Cc2c(F)cccc2F)c2cccnc2c1=O`, for which the concentration for half-maximal inhibition (IC50) at Phosphodiesterase 4 [17] came out at 380 nM.

As to `O=C1Nc2c(Cl)ccc(Oc3ccccc3-c3nnn[nH]3)c2C2(CCCCC2)N1`, the negative logarithm of the IC50 (pIC50) in data set [12] was over 9.82.

Regarding `O=C1Nc2c(Cl)cc(-c3ccccc3)cc2C2(CCCCC2)N1`, the IC50 at Phosphodiesterase 4 [2] is given as 1420 nM; on Phosphodiesterase 7 [4] it was 16 nM. Compound `Cn1nc(-c2ccc(Cl)cc2)s/c1=N\C1CCCCC1` came in with an IC50 against Phosphodiesterase 7 [14] of 1500 nM. Compound `O=S1(=O)N=C(O)c2ccccc2N1` showed an IC50 at Phosphodiesterase 7 [14] of 8000 nM. For `COc1ccc(C2=NN(C3CCCC3)C(=O)[C@@H]3CC=CC[C@H]23)cc1Cl`, on Phosphodiesterase 3, the IC50 worked out at 0.76 nM. Moreover, the Kp at 0.5 h in data set [19] was 1.69. The compound further showed a pIC50 in data set [15] of 7.73. Turning to `COc1ccc(Cn2c(=O)c3cc(OCC#N)ccc3n(C3CC[S+]([O-])CC3)c2=O)cc1OC` (stereo not given), the 50% inhibitory concentration (IC50) against Phosphodiesterase 7 [14] was 6.1 nM.

`O=C1Nc2c(Cl)cc3nc(CN4CCNCC4)oc3c2C2(CCCCC2)N1`: the pIC50 in data set [12] is over 8.00. On to `CSc1nc2c(C)cccc2c(=O)n1-c1c(F)cccc1F`, for which the 50% inhibitory concentration (IC50) against Phosphodiesterase 4 [17] was determined as 1400 nM; on Phosphodiesterase 7 [14], 130 nM. `COc1ccc(Cn2c(=O)c3cc(OC(CF)CF)ccc3n(C3CCN(C=O)CC3)c2=O)cc1OC` showed a negative-log IC50 (pIC50) in data set [20] of 6.85. On Phosphodiesterase 7 [8], this compound returned an IC50 of 39 nM. As to `O=C1Nc2c(Cl)cccc2C2(CCCCC2)N1`, the IC50 at Phosphodiesterase 7 [4] is reported as 170 nM. As to `Fc1cc2nc(S)[nH]c(=S)c2cc1F`, the IC50 against Phosphodiesterase 7 [14] turned out to be 74 nM. For `CN(C)C(=O)CCN(C)C(=O)c1nc2cc(Cl)c3c(c2o1)C1(CCCCC1)NC(=O)N3`, the negative-log IC50 (pIC50) in data set [12] was over 8.00.

On Phosphodiesterase 7 [14], `COc1ccc(/C(CSc2nc3ccccc3c(=O)n2-c2ccccc2)=N\O)cc1` yielded a half-maximal inhibitory concentration (IC50) of 1150 nM. `COc1ccc(-c2cc3c(n2-c2ccc(S(=O)(=O)Nc4nc(C)cc(C)n4)cc2)CCC(N2CCN(C)CC2)C3)cc1C` (stereo not given): the pIC50 in [5] is 6.20; in [7], 7.85. Moreover, the Ratio IC50 in [6] amounted to 45.

Turning to `Cc1ccc([N+](=O)[O-])cc1S(=O)(=O)N(C)C`, the Ratio IC50 in the data set listed under Homo sapiens is 238. This compound also gave a negative-log IC50 (pIC50) in data set [7] of 6.21. For `COc1cc(-c2nc(NC3CCCC3)c3ccsc3n2)cc(OC)c1OC`, the 50% inhibitory concentration (IC50) against Phosphodiesterase 7 [14] is listed as 20 nM.

The term solubility denotes the dissolved amount per volume that the medium holds. Lower therefore signals little dissolved substance. `CCOC(=O)c1sc(Nc2nc(NCc3ccc(S(N)(=O)=O)cc3)c3c(ncn3CC)n2)nc1C`: the solubility in data set [21] came out at 5 µg/mL (≈ 9.68 µM).

Turning to `Cn1nc(-c2ccc(C(N)=O)cc2)s/c1=N\C1CCCCC1`, the pIC50 in [10] was 7.21; in data set [12], 4.82. On to `N#Cc1cc(Cn2c(=O)c3cc(OC(CF)CF)ccc3n(C3CCN(C=O)CC3)c2=O)ccc1-c1ccccc1`, for which, in [20], the pIC50 is 7.82. The same compound had a 50% inhibitory concentration (IC50) against Phosphodiesterase 7 [8] of 37 nM. For the compound `c1ccc(-c2n/c(=N/CCN3CCOCC3)sn2-c2ccccc2)cc1`, in [18], the pIC50 was 6.06. In addition, the half-inhibitory concentration (IC50) against Phosphodiesterase 7 [8] was 1590 nM. Consider `COc1cc(CN(Cc2ccc(OC)cc2OC)c2ncnc3c2nnn3C2CC(C(F)(F)F)CCC2(F)F)cc(OC)c1` (stereo not given), for which the IC50 against Phosphodiesterase 4 [17] is 11900 nM; on Phosphodiesterase 7 [14], under 10 nM.

The compound `CCCCc1nc2c(c(=O)n(C)c(=O)n2C)n1CCCC(=O)Nc1cc(C(C)(C)C)ccc1O` showed a negative logarithm of the IC50 (pIC50) in data set [22] of 6.27.

As for `CCOC(=O)c1cc2c(=O)n3ccccc3nc2n(C2CCCCC2)/c1=N\C(C)=O`, the pIC50 was 6.85 in data set [9], 6.52 in [22] and 6.95 in [23].

Regarding `S=c1[nH]c2ccccc2c(=S)n1-c1ccccc1`, the half-inhibitory concentration (IC50) at Phosphodiesterase 7 [14] is 550 nM.

Regarding `N=c1nc(-c2ccccc2)n(-c2ccccc2)s1`, the pIC50 in [18] was 5.20. Also, on Phosphodiesterase 7 [8], the IC50 was 1020 nM. On to `CC(C)(C)CSc1nc2ccccc2c(=O)n1-c1ccccc1`, for which the 50% inhibitory concentration (IC50) against Phosphodiesterase 7 [14] is on record as 100 nM. `Cn1nc(-c2ccc(C(N)=O)cc2)s/c1=N\[C@@H]1CCC[C@@H](O)C1`: the values for the negative-log IC50 (pIC50) in data set [10] and in data set [12] were 7.06 and 6.21, respectively. Moreover, in data set [11], the bioavailability was found to be 38.5%. As for `COc1ccc(C2=NN(C3CCN(C(=O)N4CCOCC4)CC3)C(=O)[C@@H]3CC=CC[C@H]23)cc1Cl`, the pIC50 in data set [5] was 8.64; in data set [7] it was 7.64. In addition, in data set [6], the Ratio IC50 worked out at 10.

With `O=C1Nc2c(Cl)ccc(OCCO)c2C2(CCCCC2)N1`, the IC50 on Phosphodiesterase 7 [14] and at Phosphodiesterase 7 [4] was 55 nM in each case.
